AC50 data for 99 compounds are collected here from PubChem BioAssay AID651703 (Broad Institute, 2012).

This test deals with Transforming acidic coiled-coil-containing protein 3 (Homo sapiens) (UniProt Q9Y6A5). Briefly: ARNT/TACC3 interaction disruptors, potency, confirmation, biochemical, AlphaScreen, cherry-picked samples (AID 651703).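 Further: TACC3 partner is the GST-tagged E629A mutant dimer; hits lower the signal meaning they disrupt ARNT binding to TACC3.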 As to conditions: AlphaScreen His-ARNT PAS-B / GST-TACC3 binding, luminescence. Background: Bead proximity is the source of the signal in Alpha formats.
In the case of `O=C(Nc1nnc(-c2ccncc2)o1)c1ccccc1`, the AC50 (usually the midpoint of the concentration-response curve, whichever way the signal moves) is 18.8 µM.

With `O=C(NCCCn1ccnc1)C(F)(F)C(F)(F)C(=O)NCCCn1ccnc1`, the AC50 is 38.5 µM.

On to `CC(C)(C)CCNC(=O)c1cc(-c2ccccc2)on1`, for which the AC50 is 21.5 µM.

Take `C[C@@H]1CN([C@H](C)CO)C(=O)Cc2cc(N(C)C)ccc2O[C@H]1CN(C)Cc1ccc(Oc2ccccc2)cc1`: the AC50 is 27.5 µM.

Take `CCc1ccc2c(c1)C1(NN=C(c3ccc(C)cc3)S1)C(=O)N2` (centres undefined): the AC50 was 1.52 µM.

As for `Cc1ccc(NC(=O)CNCc2ccccn2)cc1S(=O)(=O)N(C)C`, the AC50 is 8.68 µM.

For `O=C(CSc1cccc2cccnc12)OCC(=O)c1ccccc1`, the AC50 is 37.3 µM.

In the case of `O=C(CSc1n[nH]c(-c2ccccn2)n1)Nc1ccccc1`, the AC50 was 0.706 µM.

Regarding `O=c1cc(CSc2ccc(Cl)cc2)nc(-c2ccccn2)[nH]1`, the AC50 was 3.69 µM.

With `Cc1ccsc1C(=O)OCC(=O)Nc1nnc(-c2ccccc2)o1`, the AC50 was 14.4 µM.

As to `N#CCC(=O)N/N=C\c1ccccc1OC/C=C/c1ccccc1`, the AC50 is 6.51 µM.

With `Fc1ccc(-c2ccc(CNCc3ccccn3)o2)cc1`, the AC50 was 31.2 µM.

As to `C[C@@H](Nc1nc(-c2ccccn2)nnc1-c1ccccc1)c1ccccc1`, the AC50 is 0.77 µM.

In the case of `CC1(C)Cc2c(sc3nc4n(-c5ccccc5)c(=O)c(CCC(=O)O)nn4c(=O)c23)CO1`, the AC50 is 19.2 µM.

For `Cn1c(-c2ccccc2)cnc1N`, the AC50 was 37.5 µM.

In the case of `CN(C)S(=O)(=O)c1cccc(NC(=O)CSc2cccc3cccnc23)c1`, the AC50 is 5.76 µM.

For `CN(C)c1nc(-c2ccccn2)nnc1-c1ccccc1`, the AC50 was below 0.5 µM.

For the compound `Cc1nc2ncccn2c1-c1csc(Nc2ccc(O)cc2)n1`, the AC50 was 4.61 µM.

Turning to `c1ccc(-c2nnc(-c3ccccn3)nc2NCC2CCCCC2)cc1`, the concentration at half-maximal activity (AC50) is 0.994 µM.

For the compound `O=C(O)CSc1c(O)c2ccccc2[nH]c1=O`, the AC50 is 34.5 µM.

As for `Cc1[nH]n(-c2ccccc2)c(=O)c1/C=N/N(c1ccccc1)c1ccccc1`, the AC50 is 16.2 µM.

For `O=c1cc(N/N=C/c2ccccc2)[nH]c(=O)[nH]1`, the AC50 was 31.8 µM.

As to `OCC1CCN(c2nc(-c3ccccn3)nnc2-c2ccccc2)CC1`, the AC50 is 1.03 µM.

As to `CCCC(=O)NC(c1ccccc1)c1ccc2cccnc2c1O` (centres undefined), the AC50 is 4.6 µM.

For `O=C(NCCCn1ccnc1)C(=O)NCC(c1ccco1)N1CCN(c2ccccc2)CC1` (centres undefined), the AC50 was 6.85 µM.

With `Cc1nnc(SCC(=O)Nc2nnc(-c3ccccc3)o2)s1`, the AC50 is 16.4 µM.

Take `c1ccc(CNc2nc(-c3ccccn3)nc3ccccc23)cc1`: the AC50 was 11.4 µM.

Take `Oc1c(Cl)cc(CN2CCOCC2)c2cccnc12`: the AC50 was 1.15 µM.

Take `O=C(Nc1nnc(-c2ccco2)o1)c1ccc(N2C(=O)CCC2=O)cc1`: the AC50 is 22.8 µM.

`O=C(NC[C@@H]1[C@H](c2ccccc2)[C@H](CO)N1Cc1ccccn1)C1CCC1`: the AC50 was 28.2 µM.

For the compound `COc1ccc(S(=O)(=O)N2CCOC2CNC(=O)C(=O)NCCCn2ccnc2)cc1OC` (centres undefined), the AC50 was 22.4 µM.

Regarding `O=C(N[C@H]1CC[C@H](CCn2cc(-c3ccccn3)nn2)O[C@@H]1CO)c1cccnc1`, the AC50 is 9.74 µM.

Regarding `COc1cc(NC(=O)CSc2ccc(-c3ccccn3)nn2)cc(OC)c1`, the AC50 is 1.78 µM.

Turning to `COc1ccc(S(=O)(=O)N2CCCOC2CNC(=O)C(=O)NCCCn2ccnc2)cc1OC` (centres undefined), the AC50 is 47.2 µM.

In the case of `c1ccc(-c2nnc(-c3ccccn3)nn2)nc1`, the concentration at half-maximal activity (AC50) was 28.8 µM.

In the case of `c1ccc(CNc2nc(-c3ccccn3)nnc2-c2ccccc2)cc1`, the AC50 is below 0.5 µM.

Turning to `CC(=O)Nc1ccc(Oc2nc(-c3ccccn3)nc3ccccc23)cc1`, the AC50 was 7.02 µM.

With `O=C(N[C@@H]1CC[C@H](CCn2cc(-c3ccccn3)nn2)O[C@H]1CO)c1ccncc1`, the AC50 is 7.57 µM.

On to `O=C(NC[C@@H]1[C@H](c2ccccc2)[C@H](CO)N1Cc1ccccn1)C1CC1`, for which the AC50 was 59.6 µM.

For `O=C(N[C@@H]1CC[C@@H](CCn2cc(-c3ccccn3)nn2)O[C@H]1CO)c1ccccc1`, the AC50 is 9.23 µM.

On to `CCCCCC/C=N/Nc1nnc(Cc2ccc(OC)c(OC)c2)c(=O)[nH]1`, for which the AC50 is 25.1 µM.

For the compound `COc1cc2c(c(OC)c1OC)-c1ccc(O)c(=O)cc1[C@@H](NC(C)=O)CC2`, the AC50 was 40.8 µM.

Turning to `CCOC(=O)C(NCc1ccccn1)(NC(=O)c1cccnc1)C(F)(F)F` (centres undefined), the AC50 is 29.8 µM.

For the compound `CC(Nc1nc(-c2ccccn2)nnc1-c1ccccc1)c1ccccc1` (centres undefined), the AC50 is 0.564 µM.

As to `CC(=O)[C@H]1[C@@H]2C(=O)N(c3cccc(Cl)c3)C(=O)[C@@H]2[C@H]2c3ccccc3C=CN21`, the AC50 is 6.22 µM.

Regarding `CS(=O)(=O)c1cccc(-c2nnc(NC(=O)c3ccc(S(=O)(=O)N4CCCC4)cc3)o2)c1`, the AC50 is 22.5 µM.

Consider `CCCC(=O)NC(c1ccc(N(C)C)cc1)c1ccc2cccnc2c1O` (centres undefined), for which the AC50 was 5.3 µM.

With `O=C(c1ccco1)[C@@H]1[C@@H]2C(=O)N(c3ccccc3)C(=O)[C@@H]2C2c3ccccc3C=CN21` (some centres undefined), the AC50 is 45.9 µM.

On to `CC(=O)NC(c1cccs1)c1cc([N+](=O)[O-])c2cccnc2c1O` (centres undefined), for which the AC50 is 2.71 µM.

As for `Cn1c(CNc2ccccc2O)nc2ccccc21`, the AC50 was 21.8 µM.

On to `COCCN=c1scc(-c2ccco2)n1/N=C/c1ccc(O)c(O)c1O`, for which the half-maximal activity concentration (AC50) was 9.77 µM.

Take `Cc1ccc(C(=O)Nc2nc(-c3ccccn3)cs2)cc1S(=O)(=O)N1CCOCC1`: the AC50 was 2.37 µM.

For the compound `Oc1ccc(CN2CCC3CCCCC3C2)c2cccnc12` (centres undefined), the AC50 is 1.22 µM.

On to `Cc1cccc(Nc2nc(-c3ccccn3)nnc2-c2ccccc2)n1`, for which the half-maximal activity concentration (AC50) was below 0.5 µM.

In the case of `COc1cc(NCCCCCCN)c2ncccc2c1OC`, the AC50 was 16.1 µM.

`Oc1c(I)cc(I)c2cccnc12`: the AC50 was 7.46 µM.

As to `COc1cc(/C=N/NC(=O)c2cncc(Br)c2)cc([N+](=O)[O-])c1O`, the AC50 was 42 µM.

For the compound `O=S(=O)(c1ccccc1)c1nc(-c2ccco2)oc1Nc1ccccc1`, the AC50 was 55.5 µM.

Take `O=[N+]([O-])c1ccc(O)c(-c2nn[nH]n2)c1`: the concentration at half-maximal activity (AC50) is 14 µM.

In the case of `O=C(N[C@@H]1CC[C@@H](CCn2cc(-c3ccccn3)nn2)O[C@H]1CO)c1cccnc1`, the AC50 was 11.8 µM.

Turning to `C=CCNc1nc(-c2ccccn2)nnc1-c1ccccc1`, the AC50 is below 0.5 µM.

Consider `NNc1nnc(-c2ccccc2)c(-c2ccccc2)n1`, for which the AC50 is 8.66 µM.

On to `CCN(CC)c1ccc(Nc2nc(N3CCOCC3)c3ccccc3n2)cc1`, for which the AC50 is 4.99 µM.

As to `O=[N+]([O-])c1cccc(/C=N/Nc2nc(NCc3ccccc3)nc(N3CCOCC3)n2)c1O`, the AC50 was 2.29 µM.

`COC(=O)c1ccc(C(=O)O)nc1`: the AC50 was 32.8 µM.

For the compound `Cc1ccc(Nc2nc(N)nc(CN3CCCCCC3)n2)cc1`, the AC50 is 34.4 µM.

On to `c1ccc(-c2nnc(-c3ccccn3)nc2N2CCN(c3ccncc3)CC2)cc1`, for which the AC50 was below 0.5 µM.

Turning to `COc1ccc(CCNC(=O)CSc2nnc(Cc3csc(N)n3)n2C)cc1OC`, the half-maximal activity concentration (AC50) is 61 µM.

`COc1cccc(C(=O)Nc2nnc(-c3cccs3)o2)c1`: the AC50 is 21.4 µM.

Take `COc1cccc(CNc2nc(-c3ccccn3)nnc2-c2ccccc2)c1`: the AC50 is 0.794 µM.

In the case of `C[C@H]1c2cccc(O)c2C(O)=C2C(=O)[C@]3(O)C(O)=C(C(N)=O)C(=O)[C@@H](N(C)C)C3[C@@H](O)C21` (some centres undefined), the AC50 is 33.5 µM.

Take `COc1ccc(C2=Nn3c(nnc3-c3ccccn3)SC2)cc1`: the AC50 is 11.2 µM.

For the compound `O=C(Nc1nccs1)c1cnccn1`, the AC50 was 63.9 µM.

Regarding `CC(C)C(=O)NC(c1cccc([N+](=O)[O-])c1)c1ccc2cccnc2c1O` (centres undefined), the AC50 was 3.82 µM.

For `C[C@@H]1CN([C@H](C)CO)C(=O)c2cc(NC(=O)Nc3ccc(C(F)(F)F)cc3)ccc2O[C@@H](C)CCCCO[C@@H]1CN(C)Cc1ccc2c(c1)OCO2`, the half-maximal activity concentration (AC50) is 38.1 µM.

Turning to `O=C(Nc1nnc(C2CC2)o1)c1ccc(S(=O)(=O)N2CCCCC2)cc1`, the AC50 is 18.4 µM.

As to `CS(=O)(=O)c1ccccc1-c1nnc(NC(=O)c2ccc3ncsc3c2)o1`, the half-maximal activity concentration (AC50) is 25.4 µM.

Consider `Nc1nc(CN2CCCCCC2)nc(Nc2ccccc2)n1`, for which the AC50 is 59 µM.

Take `Cc1[nH][nH]c(=O)c1C(c1ccc(-c2ccc(F)cc2)o1)c1c(C)[nH][nH]c1=O`: the AC50 is 19.6 µM.

As for `O=C(COC(=O)c1cccc(O)c1)Nc1nnc(-c2ccccc2)o1`, the AC50 is 16 µM.

For `Cc1ccccc1CS(=O)(=O)Cc1ccc(C(=O)NCc2ccccn2)o1`, the AC50 is 31.6 µM.

On to `COc1ccc(CNc2nc(-c3ccccn3)nnc2-c2ccccc2)cc1`, for which the AC50 is 0.611 µM.

Regarding `CC(=O)/C(=N\Nc1ccc(Cl)cc1Cl)Sc1cccc2cccnc12`, the AC50 is 2.95 µM.

With `CC(C)(C)C1=CC(=Nc2ccccc2N)C=C(C(C)(C)C)C1=O`, the AC50 is 1.47 µM.

As for `O=C(N[C@@H]1CC[C@H](CCn2cc(-c3ccccn3)nn2)O[C@@H]1CO)c1ccncc1`, the AC50 was 8.23 µM.

`COc1ccc2nc(-c3ccccn3)[nH]c2c1`: the AC50 is 29 µM.

For `Cc1ccccc1CNc1nc(-c2ccccn2)nnc1-c1ccccc1`, the AC50 is 0.647 µM.

For `CCOc1ccc(NC(=O)CC(NCc2ccccn2)C(=O)O)cc1` (centres undefined), the AC50 was below 0.5 µM.

With `O=C(CSc1n[nH]c(-c2ccccn2)n1)Nc1ccc(F)cc1`, the concentration at half-maximal activity (AC50) is 1.09 µM.

`CCOc1cc(N2CCOCC2)c(OCC)cc1NC(=O)COc1cccc2cccnc12`: the AC50 is 20.3 µM.

Turning to `c1ccc(-c2nnc(-c3ccccn3)nc2NCc2cccnc2)cc1`, the concentration at half-maximal activity (AC50) was below 0.5 µM.

With `c1ccc(-c2nc(-c3ccncc3)n[nH]2)nc1`, the AC50 was 2.79 µM.

Turning to `O=C(Nc1nnc(-c2ccc(F)cc2)o1)c1ccco1`, the concentration at half-maximal activity (AC50) is 37 µM.

On to `Oc1cc(NCCN2CCOCC2)cc2cccnc12`, for which the AC50 was 1.46 µM.

Turning to `O=C(CSc1ccc(-c2ccccn2)nn1)Nc1ccccc1`, the AC50 is 1.96 µM.

On to `CCCCCc1cc(=O)oc2c(C(CCN3CCCC3)c3ccc(N(C)C)cc3)c(OC)cc(OC)c12` (centres undefined), for which the AC50 was 6.86 µM.

Consider `NC1=NN=C(N2N=C(c3ccco3)CC2(O)C(F)(F)F)n2ncnc2C1` (centres undefined), for which the AC50 was 12 µM.

In the case of `CC(C)Nc1nc(NC(C)C)nc(C(=O)OCCO)n1`, the AC50 is 41.8 µM.

For `O=C(NCCCNCCCNC(=O)c1ccc(/C=N/O)nc1)c1ccc(/C=N/O)nc1`, the AC50 is 4.96 µM.
